# Source: patent US7943804B2, “Lutein extraction from ozone-treated plant sources” (Board of Supervisors of Louisiana State University and …, priority 2006, dated 2011)
# Read-outs that look alike come from different tables or passages of the source.
# How the values were obtained:
# [1] = test system: AFB1 mutagenicity in Salmonella typhimurium tester strain TA100; type: cell-based; conditions: AFB1 500 ng/plate
# [2] = test system: Salmonella typhimurium tester strain TA100; conditions: for Number of Revertants (without use of AFB1): TA100
# [3] = test system: AFB1 mutagenicity, Salmonella strains; conditions: cited from earlier work
# [4] = test system: Salmonella typhimurium tester strain TA100; type: cell-based
compound,measurement,setting,value
"CC1=C[C@H](O)CC(C)(C)[C@H]1/C=C/C(C)=C/C=C/C(C)=C/C=C/C=C(C)/C=C/C=C(C)/C=C/C1=C(C)C[C@@H](O)CC1(C)C [Lutein, β, e-carotene-3,3′-diol]","inhibition of AFB1 mutagenicity, result in words",[1]; TA100,inhibited AFB1 (500 ng/plate) mutagenicity in a dose-response manner
same,Number of Revertants,[1]; lutein standard 0.02 μg/plate,876 ± 34
same,Percent Inhibition,[1]; lutein standard 0.02 μg/plate,5.3%
same,Number of Revertants,[1]; lutein standard 0.2 μg/plate,813 ± 45
same,Percent Inhibition,[1]; lutein standard 0.2 μg/plate,12.1%
same,Number of Revertants,[1]; lutein standard 0.8 μg/plate,741 ± 25
same,Percent Inhibition,[1]; lutein standard 0.8 μg/plate,19.9%
same,Number of Revertants,[1]; lutein standard 2 μg/plate,679 ± 39
same,Percent Inhibition,[1]; lutein standard 2 μg/plate,26.6%
same,Number of Revertants,[1]; lutein standard 10 μg/plate,568 ± 50
same,Percent Inhibition,[1]; lutein standard 10 μg/plate,38.6%
same,mutagenic effect (increase of revertants over the natural rate),"[2]; TA100, result in words",neither purified lutein nor corn lutein extracts increase the number of revertants over the natural rate
same,Number of Revertants (without use of AFB1),[2]; lutein standard 0.02 μg/plate,247 ± 15
same,Number of Revertants (without use of AFB1),"[2]; lutein standard 0.2 μg/plate, listed as Lutein Standard",258 ± 10
same,Number of Revertants (without use of AFB1),"[2]; lutein standard 0.2 μg/plate, listed as lutein standard",254
same,Number of Revertants (without use of AFB1),"[2]; lutein standard 0.8 μg/plate, listed as Lutein Standard",261 ± 13
same,Number of Revertants (without use of AFB1),"[2]; lutein standard 0.8 μg/plate, listed as lutein standard",261
same,Number of Revertants (without use of AFB1),[2]; lutein standard 2 μg/plate,243 ± 8
same,Number of Revertants (without use of AFB1),"[2]; lutein standard 10 μg/plate, listed as Lutein Standard",264 ± 12
same,Number of Revertants (without use of AFB1),"[2]; lutein standard 10 μg/plate, listed as lutein standard",264
same,mutagenic effect of aflatoxin relative to control,[3],2%
same,"inhibition of AFB1 mutagenicity, result in words",[3]; test based on Salmonella strains,inhibit the mutagenicity of AFB1
CC1=CCCC(C)(C)[C@H]1/C=C/C(C)=C/C=C/C(C)=C/C=C/C=C(C)/C=C/C=C(C)/C=C/C1=C(C)CCCC1(C)C [α-carotene],mutagenic effect of aflatoxin relative to control,[3],2%
aflatoxin B1 [AFB1],mutagenic potency,[4],about 925 revertants/plate
